Test results reported in patent US12582660B2, “Inhibitors of the RAS oncoprotein, methods of making and methods of use thereof” (University of Louisville Research Foundation, Inc., priority 2018, dated 2026).
Entries after “also recorded” stand apart in the source; their conditions may differ. Values belong to the compound of their own block, whether it stands above or below them.

Tests used:
[1] = molecular target: recombinant K-RAS12v protein (Homo sapiens, UniProt P01116, G12V); assay: Thermofluor direct binding assay; conditions: for Thermofluor curve shift (direct binding): 200 uM compound/5 uM protein, K-RAS12v loaded with gamma GTPS
Description: Direct binding of F3/F3a derivative to recombinant K-RAS protein. Thermofluor assays were performed to assay whether direct interactions could be detected between recombinant K-RAS protein and compound F3, or recombinant K-RAS protein and compound JAB-6-5. Recombinant K-RAS12v protein was loaded with gamma GTPS and used in binding assays with a ratio of: 200 uM compound/5 uM protein. Control compound C4 is targeted at a different protein and was not expected to bind RAS. The results are the derivative of three assays performed in triplicate. […] A predicted kD can be extrapolated from the curve: ˜25 uM at 55.5° C.

[2] = system: Mia-Paca-2; assay: 3-D soft agar drug screening, Mia-Paca-2; format: cell-based; conditions: Mia-Paca-2, K12C, Pancreatic
Description: (§1) The technical process of 3-D culture involves preparing molten agar at 1.6% in culture medium and adding serum to 10%. 1 ml of this agar medium is plated per well in a 12 well plate and allowed to set. This is the bottom agar and prevents any cells added to the well from touching the plastic bottom of the plate, ensuring everything remains suspended. Meanwhile the remaining stock of agar medium is kept at 42° C. to prevent setting. Target cells are then trypsinized into a single cell suspension and mixed with normal medium/drug combination. ⅔ volume molten agar medium is then added and the mixture plated onto the bottom agar. The agar/medium sets as it cools, suspending the cells in a 3D environment. Typically, within 2 weeks, tumor spheres (colonies) will form suspended in the agar. The number of colonies, or even the size, may be counted under an inverted microscope and quantified to assay tumor sphere inhibition.
(§2) The compounds synthesized were tested in the 3-D soft agar drug screening, including F3, JAB-6-176 and JAB-8-60. All the compounds tested suppressed 3-D soft agar growth, but had little effect on normal 2-D growth. […] In Table 2, below, are listed different cell lines, with the results of testing F3 in the “REMARKS” column. All the cell lines are common and publicly available from the ATCC repository (www.atcc.org/en/Products/Cells_and_Microorganisms/Cell_Lines.aspx). […]

[3] = system: A549; assay: 3-D soft agar drug screening, A549; format: cell-based; conditions: A549, K12S, Lung
Description: as §1, §2

[4] = system: Panc-1; assay: 3-D soft agar drug screening, Panc-1; format: cell-based; conditions: Panc-1, K12D, pancreatic
Description: as §1, §2

[5] = system: H1299; assay: 3-D soft agar drug screening, H1299; format: cell-based; conditions: H1299, Hras61, Lung
Description: as §1, §2

[6] = system: CaoV3; assay: 3-D soft agar drug screening, CaoV3; format: cell-based; conditions: CaoV3, NF1mute, ovarian
Description: as §1, §2

[7] = system: S462.TY; assay: 3-D soft agar drug screening, S462.TY; format: cell-based; conditions: NF1-mute, MPNST
Description: as §1, §2

[8] = system: A375; assay: 3-D soft agar drug screening, A375; format: cell-based; conditions: A375, B-RAF mute, melanoma; 2 uM
Description: as §1, §2

[9] = system: HTB-185; assay: 3-D soft agar drug screening, HTB-185; format: cell-based; conditions: HTB-185, DAB2IP deficient, Medulloblastoma
Description: as §1, §2

[10] = system: MDA-MB-231; assay: 3-D soft agar drug screening, MDA-MB-231; format: cell-based; conditions: MDA-MB-231, Kras13D and deficient for NF1, Breast; cells don't grow well in soft agar
Description: as §1, §2

[11] = system: SK-RC-45; assay: 3-D soft agar drug screening, SK-RC-45; format: cell-based; conditions: SK-RC-45, EGFR++++, kidney
Description: as §1, §2

[12] = system: HL-60; assay: Suspension culture growth, HL-60; format: cell-based; conditions: HL-60, NRASQ61L, AML
Description: (§3) The compounds synthesized were tested in the 3-D soft agar drug screening, including F3, JAB-6-176 and JAB-8-60. All the compounds tested suppressed 3-D soft agar growth, but had little effect on normal 2-D growth. […] In Table 2, below, are listed different cell lines, with the results of testing F3 in the “REMARKS” column. All the cell lines are common and publicly available from the ATCC repository (www.atcc.org/en/Products/Cells_and_Microorganisms/Cell_Lines.aspx). NF1 mute are cells with defects in the NF1 gene (a negative regulator of RAS) causing hyper-activation of the wild type form of RAS. The same is true for DAB2IP deficient cells. EGFR+++ cells overexpress the EGFR receptor, which also results in the hyper-activation of wild type RAS,

[13] = system: tumor cells; assay: 3-D soft agar drug screening (cell line not stated); format: cell-based
Description: as §1, §2

[14] = Normal 2-D growth (cell line not stated); format: cell-based
Description: as §3

[15] = system: A549 K-RAS driven lung tumor cell line; assay: Normal growth/survival in 2-D culture on plastic, A549; format: cell-based; conditions: 10 uM
Description: (§4) Effects of the small molecule on growth in soft agar of A549 K-RAS driven lung tumor cell line and K-RAS driven pancreatic cancer cell line MiaPaCa-2 is shown. 0=carrier (DMSO). P values are less than 0.05, FIG. 5 and FIG. 6 show the effects of 10 uM of F3 on normal growth/survival in 2-D culture on plastic of the same cells. […] FIG. 7 is a graph showing that F3 is also effective against wild-type driven tumor cells, while FIG. 8 is a graph showing normal growth/survival in 2-D culture on plastic of the same cells.

[16] = system: K-RAS driven pancreatic cancer cell line MiaPaCa-2; assay: Normal growth/survival in 2-D culture on plastic, MiaPaCa-2; format: cell-based; conditions: 10 uM
Description: as §4

[17] = system: wild-type RAS driven tumor cells; assay: Soft agar growth of wild-type RAS driven tumor cells; format: cell-based
Description: as §4

[18] = system: Mia-Paca-2 cells; assay: Anoikis assay on polyHEMA treated wells, trypan blue exclusion; format: cell-based; conditions: after 48 hours
Description: RAS activation leads to resistance to anoikis and inhibiting RAS function re-sensitizes […] cells to anoikis. The RAS/RalGDS pathway has been implicated as a significant component of RAS mediated anoikis suppression. […] After 48 hours the cultures were assayed for cell death by trypan blue exclusion.

[19] = system: NCI-H441 (Lung cancer) xenograft tumors; assay: Tumor inhibition of xenografts, NCI-H441; format: in vivo; conditions: NCI-H441 xenograft in NRG mice
Description: (§5) Compound F3 was tested in vivo, using cell line xenograft tumors in NRG mice. Cell lines used included Mia-Paca-2 (Pancreatic cancer), and NCI-H441 (Lung cancer). […] The results for Mia-Paca-2 are shown in FIG. 14 and FIG. 15 ([…] treated with DMSO/PBS (carrier) or F3 drug at 12 mg/kg every three days).

[20] = system: Mia-Paca-2 (Pancreatic cancer) xenograft tumors; assay: Tumor inhibition of xenografts, Mia-Paca-2; format: in vivo, NRG mice; conditions: Mia-Paca-2 xenograft; 12 mg/kg every three days; P value 0.014
Description: as §5

[21] = Preliminary in vivo toxicity assay; parameters: species or system NRG mice; conditions: i.p. 10 mg/kg every other day for 2 weeks
Description: A preliminary in vivo toxicity assay was performed on F3. NRG mice were i.p. injected with 10 mg/kg of drug every other day for 2 weeks.

Chain of recombinant K-RAS12v protein (P01116 1-185 isoform P01116-2 G12V): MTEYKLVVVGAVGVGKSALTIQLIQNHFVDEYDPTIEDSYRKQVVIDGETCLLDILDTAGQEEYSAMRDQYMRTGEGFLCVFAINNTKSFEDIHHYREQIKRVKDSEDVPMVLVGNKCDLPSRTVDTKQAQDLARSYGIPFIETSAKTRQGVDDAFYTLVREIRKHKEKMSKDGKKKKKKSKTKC

Thermofluor curve shift (direct binding) [1]: significant curve shift
Kd ([1]; at 55.5° C., read-out: predicted kD extrapolated from the curve): ~25 µM
Structure (SMILES): Cc1ccc(NC(=O)CN(C)CC(=O)Nc2cccc(F)c2)cc1S(=O)(=O)N1CCCCCC1 [Compound F3, N-(3-(Azepan-1-ylsulfonyl)-4-methylphenyl)-2-((2-((3-fluorophenyl)amino)-2-oxoethyl)(methyl)amino)-acetamide]
Soft agar growth [2]: specific inhibition; also recorded: Soft agar growth inhibited
Soft agar growth [3]: specific inhibition; also recorded: Soft agar growth inhibited
Soft agar growth [4]: Soft agar growth inhibited
Soft agar growth [5]: Soft agar growth inhibited
Soft agar growth [6]: Soft agar growth inhibited
Soft agar growth [7]: Soft agar growth inhibited
Soft agar growth [8]: 10 uM, no effect at 2 uM
Soft agar growth [9]: Soft agar growth inhibited
Soft agar growth [10]: inhibited.
Soft agar growth [11]: Soft agar growth inhibited
Growth in suspension [12]: inhibited
3-D soft agar growth [13]: suppressed
normal 2-D growth [14]: little effect
cell growth in 2-D culture on plastic [15]: no effect
cell growth in 2-D culture on plastic [16]: no effect
Effect against wild-type driven tumor cells [17]: effective
anoikis (cell death by trypan blue exclusion) [18]: induced high levels of anoikis
tumor volume as compared to controls [19]: reduction in tumor volume
tumor volume as compared to controls [20]: approximately half the volume
signs of pain or distress [21]: No obvious signs of pain or distress
weight loss [21]: no weight loss

Thermofluor curve shift (direct binding) [1]: significant curve shift
Structure (SMILES): Cc1ccc(NC(=O)CN(C)CC(=O)Nc2cccc(F)c2)cc1S(=O)(=O)N1CCCC1 [JAB-6-5]

Structure (SMILES): CCCc1ccc(NC(=O)CN(C)CC(=O)Nc2cccc(F)c2)cc1S(=O)(=O)N1CCCCCC1 [JAB-6-176]
3-D soft agar growth [13]: suppressed
normal 2-D growth [14]: little effect
